Measurements from patent publication US20110313015A1, “Fludioxonil Derivatives” (Bayer CropScience AG, priority 2010, published 2011).

Tested on: common bent (Agrostis capillaris)
Experiment: Herbicidal early post-emergence action (microtitre plate, visual assessment of damage)
Type: in vivo
Settings: application rate 1900 g/ha, assessed after 10 days vs untreated controls, 100% = plants have died, 0% = like control plants
Description: Seeds of mono- and dicotyledonous harmful plants are, in a microtitre plate, placed into sand. The compounds according to the invention, formulated as emulsion concentrates (EC), are then applied as an aqueous emulsion using spray nozzles adapted to the uHTVS to the germinated plants. After the treatment, the microtitre plates are placed in a climatized chamber and kept under good growth conditions for the test plants. The visual assessment of the damage to the test plants is carried out after a trial period of 10 days by comparison with untreated controls (herbicidal activity in percent (%): 100% activity=the plants have died, 0% activity=like control plants).

## COC(=O)CCn1cc(C#N)c(-c2cccc3c2OC(F)(F)O3)c1 [No. 1]
  herbicidal activity: 100%
